Results taken from PMC12267714 (Nature Communications, 2025).
Counter-ions that a name gives are not always drawn.

Details: mouse, in vivo, 20 mg/kg

## CN(C)C(=O)COC(=O)Cc1ccc(OC(=O)c2ccc(NC(=N)N)cc2)cc1 [camostat mesylate]
  level in the plasma after oral delivery: no detectable level
